Where two headings read alike, the source gives them in different places.
Columns and labels:
protein kinase CK2 = details: cited from earlier work
[1] = set-up: method as in PMID 20734498, PMID 22632480; details: experimental, aqueous medium; cited from earlier work
[2] = set-up: method as in PMID 20734498, PMID 22632480; details: ab initio, calculated previously; cited from earlier work
human CK2α = target: T1, human CK2α (Homo sapiens, UniProt P68400); assay: CK2α activity, P81 filter isotopic assay (inhibition, IC50); format: biochemical
T1 construct: CK2α was from KinaseDetect Aps; purchased KinaseDetect Aps
Protocol: CK2α activity was monitored using the P81 filter isotopic assay. The reaction mixture contained 20 mM Tris-HCl, pH 7.5, 20 mM MgCl2, 20 µM DTT, 20 µM peptide substrate, 0.5 mM β-glycerol, 0.1 mM EGTA, 10 µM ATP (200–300 cpm/pmol) and CK2α (0.4 µg/µl). The reaction was initiated with enzyme in a total volume of 50 µl, and incubated at 30°C for 20 min. 10 µl of a reaction mixture was spotted onto a P81 filter. The filter papers were washed 3× with 0.6% phosphoric acid, once with 95% ethanol, then counted in a scintillation counter (Canberra-Packard).
ATP, and Cmax and Cmin are the asymptotic values.

[3] = set-up: method as in PMID 20734498, PMID 22632480; details: cited from earlier work; for Cw (aqueous solubility): experimental
[4] = set-up: method as in PMID 20734498, PMID 22632480; details: ab initio, calculated previously; cited from earlier work; remark: listed apart in the source
[5] = 10 µM ATP, 20 µM peptide substrate, pH 7.5, 30°C, 20 min
[6] = acidic solution, compared with neutral pH

T1 sequence (P68400 whole entry): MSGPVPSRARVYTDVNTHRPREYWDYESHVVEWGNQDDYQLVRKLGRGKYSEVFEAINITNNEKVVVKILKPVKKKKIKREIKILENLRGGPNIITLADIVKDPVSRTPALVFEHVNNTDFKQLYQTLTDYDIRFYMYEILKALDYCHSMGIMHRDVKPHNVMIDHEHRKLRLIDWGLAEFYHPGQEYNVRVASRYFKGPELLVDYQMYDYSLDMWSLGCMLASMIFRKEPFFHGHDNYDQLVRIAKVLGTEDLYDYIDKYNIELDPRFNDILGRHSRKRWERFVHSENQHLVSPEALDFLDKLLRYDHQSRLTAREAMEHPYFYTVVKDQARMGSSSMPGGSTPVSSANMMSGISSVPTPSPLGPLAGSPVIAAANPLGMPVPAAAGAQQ

SMILES: Clc1c(Cl)c(Cl)c2[nH]nnc2c1Cl [4,5,6,7-tetrachloro-benzotriazole]
- activity against CK2 (in words) (protein kinase CK2): moderate activity

SMILES: Cc1c(C)c(C)c2[nH]nnc2c1C [4,5,6,7-tetramethyl-benzotriazole]
- activity against CK2 (in words) (protein kinase CK2): low, but detectable, activity

SMILES: Brc1cc2[nH]nnc2c(Br)c1Br [4,5,6-Br3Bt]
- pKa (triazole proton dissociation) [1]: 5.91
- ΔGdiss (free energy of proton dissociation) [2]: 52.3 kcal/mol
- IC50 (human CK2α; [5]): 0.38 ± 0.02 µM
- solubility (in words) [3, 6]: visibly higher
- Cw (aqueous solubility) [3]: 62.3 µM
- solubility (in words) ([3]; neutral pH): as low as for TBBt
- ΔGsolv (free energy of solvation of the anionic form) [4]: -40.9 kcal/mol

SMILES: Brc1cc(Br)c2[nH]nnc2c1Br [4,5,7-Br3Bt]
- pKa (triazole proton dissociation) [1]: 5.38
- ΔGdiss (free energy of proton dissociation) [2]: 52.2 kcal/mol
- IC50 (human CK2α; [5]): 5.8 ± 0.9 µM
- Cw (aqueous solubility) [3]: 1040 µM
- ΔGsolv (free energy of solvation of the anionic form) [4]: -41.9 kcal/mol

SMILES: Brc1ccc2[nH]nnc2c1Br [4,5-Br2Bt]
- pKa (triazole proton dissociation) [1]: 6.49
- ΔGdiss (free energy of proton dissociation) [2]: 54.3 kcal/mol
- IC50 (human CK2α; [5]): 10.6 ± 0.9 µM
- Cw (aqueous solubility) [3]: 499 µM
- ΔGsolv (free energy of solvation of the anionic form) [4]: -46.8 kcal/mol

SMILES: Brc1cc(Br)c2nn[nH]c2c1 [4,6-Br2Bt]
- pKa (triazole proton dissociation) [1]: 6.38
- ΔGdiss (free energy of proton dissociation) [2]: 54.2 kcal/mol
- IC50 (human CK2α; [5]): 10 ± 2.2 µM
- Cw (aqueous solubility) [3]: 234 µM
- ΔGsolv (free energy of solvation of the anionic form) [4]: -45.5 kcal/mol

SMILES: Brc1ccc(Br)c2[nH]nnc12 [4,7-Br2Bt]
- pKa (triazole proton dissociation) [1]: 5.84
- ΔGdiss (free energy of proton dissociation) [2]: 53.4 kcal/mol
- IC50 (human CK2α; [5]): 72 ± 11 µM
- Cw (aqueous solubility) [3]: 1980 µM
- ΔGsolv (free energy of solvation of the anionic form) [4]: -48.0 kcal/mol

SMILES: Brc1cccc2[nH]nnc12 [4-BrBt]
- pKa (triazole proton dissociation) [1]: 7.08
- ΔGdiss (free energy of proton dissociation) [2]: 56.7 kcal/mol
- IC50 (human CK2α; [5]): 119 ± 10 µM
- Cw (aqueous solubility) [3]: 3870 µM
- ΔGsolv (free energy of solvation of the anionic form) [4]: -53.3 kcal/mol

SMILES: Brc1cc2nn[nH]c2cc1Br [5,6-Br2Bt]
- pKa (triazole proton dissociation) [1]: 6.93
- ΔGdiss (free energy of proton dissociation) [2]: 55.8 kcal/mol
- IC50 (human CK2α; [5]): 0.56 ± 0.02 µM
- solubility (in words) [3, 6]: visibly higher
- Cw (aqueous solubility) [3]: 231 µM
- solubility (in words) ([3]; neutral pH): as low as for TBBt
- ΔGsolv (free energy of solvation of the anionic form) [4]: -44.4 kcal/mol

SMILES: Brc1ccc2nn[nH]c2c1 [5-BrBt]
- pKa (triazole proton dissociation) [1]: 7.55
- ΔGdiss (free energy of proton dissociation) [2]: 58.1 kcal/mol
- IC50 (human CK2α; [5]): 26 ± 3 µM
- Cw (aqueous solubility) [3]: 2770 µM
- ΔGsolv (free energy of solvation of the anionic form) [4]: -50.7 kcal/mol

SMILES: c1ccc2[nH]nnc2c1 [Bt, benzotriazole, reference compound]
- pKa (triazole proton dissociation) [1]: 8.56
- ΔGdiss (free energy of proton dissociation) [2]: 59.5 kcal/mol
- inhibitory activity against CK2α (in words) (human CK2α): totally inactive
- IC50 (human CK2α; [5]): > 2000 µM
- IC50 (human CK2α; as stated in legend of Figure 5): > 2000 µM
- Cw (aqueous solubility) [3]: 196000 µM
- ΔGsolv (free energy of solvation of the anionic form) [4]: -59.9 kcal/mol

SMILES: Brc1c(Br)c(Br)c2[nH]nnc2c1Br [TBBt, 4,5,6,7-tetrabromobenzotriazole, reference compound]
- ΔGdiss (free energy of proton dissociation) [2]: 49.7 kcal/mol
- Cw (aqueous solubility) [3]: 218 µM
- solubility (in words) ([3]; neutral form of the ligand): very poorly soluble
- ΔGsolv (free energy of solvation of the anionic form) [4]: -38.0 kcal/mol

SMILES: Brc1c(Br)c(Br)c2[nH]cnc2c1Br [TBBz, 4,5,6,7-tetrabromobenzimidazole]
- Ki (protein kinase CK2): low µM and sub-µM range
- activity relative to TBBt (fold less active) (protein kinase CK2): 4 fold
